Data published in the NIST ThermoML archive (doi:10.1016/j.jct.2005.12.005).
Numbers after ± are expanded uncertainties.

Key:
[1] = xn = mol fraction of the nth substance listed; details: 101 kPa, Liquid; for speed of sound: Sing-around technique in a fixed-path interferometer
[2] = refractive index (Na D-line) (dimensionless); xn = mol fraction of the nth substance listed; details: 101 kPa, Liquid

With `Cc1ccc(C)cc1` [1,4-dimethylbenzene] + CC1CCCCC1 the speed of sound ([1]; 298.15 K, x2 = 0) was 1326 ± 6 m/s, the mass density ([1]; 298.15 K, x2 = 0) was 856.7 ± 0.9 kg/m3 and the viscosity ([1]; 298.15 K, x2 = 0) was 0.611 ± 0.009 mPa·s. The mass density ([1]; 303.15 K, x2 = 0) was 852.3 ± 0.9 kg/m3, the viscosity ([1]; 303.15 K, x2 = 0) was 0.572 ± 0.009 mPa·s and the mass density ([1]; 308.15 K, x2 = 0) was 848 ± 0.9 kg/m3. The viscosity ([1]; 308.15 K, x2 = 0) was 0.54 ± 0.008 mPa·s, the refractive index ([2]; 298.15 K, x2 = 0) was 1.4926 ± 0.001 and the refractive index ([2]; 303.15 K, x2 = 0) was 1.4893 ± 0.001. The refractive index ([2]; 308.15 K, x2 = 0) was 1.4867 ± 0.001.
For `CC1CCCCC1` [methylcyclohexane] + c1ccccc1, the speed of sound ([1]; 298.15 K, x1 = 0.104) was 1293 ± 5 m/s, the speed of sound ([1]; 298.15 K, x1 = 0.2045) was 1284 ± 5 m/s and the speed of sound ([1]; 298.15 K, x1 = 0.302) was 1276 ± 5 m/s. For the same compound, the speed of sound ([1]; 298.15 K, x1 = 0.4006) was 1267 ± 5 m/s, the speed of sound ([1]; 298.15 K, x1 = 0.5007) was 1259 ± 5 m/s and the speed of sound ([1]; 298.15 K, x1 = 0.6004) was 1250 ± 5 m/s. For the same compound, the speed of sound ([1]; 298.15 K, x1 = 0.7056) was 1242 ± 5 m/s, the speed of sound ([1]; 298.15 K, x1 = 0.8033) was 1234 ± 5 m/s and the speed of sound ([1]; 298.15 K, x1 = 0.8982) was 1225 ± 5 m/s. For the same compound, the speed of sound ([1]; 298.15 K, x1 = 1) was 1217 ± 5 m/s, the mass density ([1]; 298.15 K, x1 = 0.104) was 855.9 ± 0.5 kg/m3 and the viscosity ([1]; 298.15 K, x1 = 0.104) was 0.584 ± 0.008 mPa·s. For the same compound, the mass density ([1]; 298.15 K, x1 = 0.2045) was 840.8 ± 0.6 kg/m3, the viscosity ([1]; 298.15 K, x1 = 0.2045) was 0.566 ± 0.008 mPa·s and the mass density ([1]; 298.15 K, x1 = 0.302) was 827.6 ± 0.6 kg/m3. It also gave a viscosity ([1]; 298.15 K, x1 = 0.302) of 0.561 ± 0.008 mPa·s, a mass density ([1]; 298.15 K, x1 = 0.4006) of 815.8 ± 0.7 kg/m3 and a viscosity ([1]; 298.15 K, x1 = 0.4006) of 0.556 ± 0.008 mPa·s. For the same compound, the mass density ([1]; 298.15 K, x1 = 0.5007) was 805 ± 0.7 kg/m3, the viscosity ([1]; 298.15 K, x1 = 0.5007) was 0.559 ± 0.008 mPa·s and the mass density ([1]; 298.15 K, x1 = 0.6004) was 795.3 ± 0.7 kg/m3. The viscosity ([1]; 298.15 K, x1 = 0.6004) was 0.571 ± 0.008 mPa·s, the mass density ([1]; 298.15 K, x1 = 0.7056) was 785.9 ± 0.8 kg/m3 and the viscosity ([1]; 298.15 K, x1 = 0.7056) was 0.597 ± 0.008 mPa·s. It also gave a mass density ([1]; 298.15 K, x1 = 0.8033) of 778.5 ± 0.8 kg/m3, a viscosity ([1]; 298.15 K, x1 = 0.8033) of 0.617 ± 0.009 mPa·s and a mass density ([1]; 298.15 K, x1 = 0.8982) of 771.4 ± 0.8 kg/m3. For the same compound, the viscosity ([1]; 298.15 K, x1 = 0.8982) was 0.647 ± 0.009 mPa·s, the mass density ([1]; 298.15 K, x1 = 1) was 765 ± 0.9 kg/m3 and the viscosity ([1]; 298.15 K, x1 = 1) was 0.676 ± 0.009 mPa·s. The mass density ([1]; 303.15 K, x1 = 0.104) was 850.7 ± 0.6 kg/m3, the viscosity ([1]; 303.15 K, x1 = 0.104) was 0.546 ± 0.008 mPa·s and the mass density ([1]; 303.15 K, x1 = 0.2045) was 835.8 ± 0.6 kg/m3. For the same compound, the viscosity ([1]; 303.15 K, x1 = 0.2045) was 0.53 ± 0.007 mPa·s, the mass density ([1]; 303.15 K, x1 = 0.302) was 822.7 ± 0.6 kg/m3 and the viscosity ([1]; 303.15 K, x1 = 0.302) was 0.527 ± 0.007 mPa·s. It also gave a mass density ([1]; 303.15 K, x1 = 0.4006) of 811 ± 0.7 kg/m3, a viscosity ([1]; 303.15 K, x1 = 0.4006) of 0.523 ± 0.007 mPa·s and a mass density ([1]; 303.15 K, x1 = 0.5007) of 800.3 ± 0.7 kg/m3. The viscosity ([1]; 303.15 K, x1 = 0.5007) was 0.527 ± 0.007 mPa·s, the mass density ([1]; 303.15 K, x1 = 0.6004) was 790.6 ± 0.7 kg/m3 and the viscosity ([1]; 303.15 K, x1 = 0.6004) was 0.537 ± 0.008 mPa·s. The mass density ([1]; 303.15 K, x1 = 0.7056) was 781.4 ± 0.8 kg/m3, the viscosity ([1]; 303.15 K, x1 = 0.7056) was 0.564 ± 0.008 mPa·s and the mass density ([1]; 303.15 K, x1 = 0.8033) was 774 ± 0.8 kg/m3. For the same compound, the viscosity ([1]; 303.15 K, x1 = 0.8033) was 0.583 ± 0.011 mPa·s, the mass density ([1]; 303.15 K, x1 = 0.8982) was 767 ± 0.8 kg/m3 and the viscosity ([1]; 303.15 K, x1 = 0.8982) was 0.607 ± 0.009 mPa·s. It also gave a mass density ([1]; 303.15 K, x1 = 1) of 760.7 ± 0.9 kg/m3, a viscosity ([1]; 303.15 K, x1 = 1) of 0.631 ± 0.009 mPa·s and a mass density ([1]; 308.15 K, x1 = 0.104) of 845.5 ± 0.6 kg/m3. It also gave a viscosity ([1]; 308.15 K, x1 = 0.104) of 0.509 ± 0.007 mPa·s, a mass density ([1]; 308.15 K, x1 = 0.2045) of 830.7 ± 0.6 kg/m3 and a viscosity ([1]; 308.15 K, x1 = 0.2045) of 0.494 ± 0.007 mPa·s. It also gave a mass density ([1]; 308.15 K, x1 = 0.302) of 817.8 ± 0.6 kg/m3, a viscosity ([1]; 308.15 K, x1 = 0.302) of 0.492 ± 0.007 mPa·s and a mass density ([1]; 308.15 K, x1 = 0.4006) of 806.2 ± 0.7 kg/m3. The viscosity ([1]; 308.15 K, x1 = 0.4006) was 0.49 ± 0.007 mPa·s, the mass density ([1]; 308.15 K, x1 = 0.5007) was 795.6 ± 0.7 kg/m3 and the viscosity ([1]; 308.15 K, x1 = 0.5007) was 0.496 ± 0.007 mPa·s. The mass density ([1]; 308.15 K, x1 = 0.6004) was 786 ± 0.7 kg/m3, the viscosity ([1]; 308.15 K, x1 = 0.6004) was 0.504 ± 0.007 mPa·s and the mass density ([1]; 308.15 K, x1 = 0.7056) was 776.8 ± 0.8 kg/m3. The viscosity ([1]; 308.15 K, x1 = 0.7056) was 0.531 ± 0.008 mPa·s, the mass density ([1]; 308.15 K, x1 = 0.8033) was 769.5 ± 0.8 kg/m3 and the viscosity ([1]; 308.15 K, x1 = 0.8033) was 0.549 ± 0.008 mPa·s. For the same compound, the mass density ([1]; 308.15 K, x1 = 0.8982) was 762.6 ± 0.8 kg/m3, the viscosity ([1]; 308.15 K, x1 = 0.8982) was 0.567 ± 0.008 mPa·s and the mass density ([1]; 308.15 K, x1 = 1) was 756.3 ± 0.9 kg/m3. It also gave a viscosity ([1]; 308.15 K, x1 = 1) of 0.59 ± 0.008 mPa·s, a refractive index ([2]; 298.15 K, x1 = 0.104) of 1.484 ± 0.0009 and a refractive index ([2]; 298.15 K, x1 = 0.2045) of 1.4728 ± 0.0009. For the same compound, the refractive index ([2]; 298.15 K, x1 = 0.302) was 1.4628 ± 0.0009, the refractive index ([2]; 298.15 K, x1 = 0.4006) was 1.455 ± 0.0009 and the refractive index ([2]; 298.15 K, x1 = 0.5007) was 1.4475 ± 0.0009. The refractive index ([2]; 298.15 K, x1 = 0.6004) was 1.441 ± 0.0009, the refractive index ([2]; 298.15 K, x1 = 0.7056) was 1.4341 ± 0.0009 and the refractive index ([2]; 298.15 K, x1 = 0.8033) was 1.429 ± 0.0009. It also gave a refractive index ([2]; 298.15 K, x1 = 0.8982) of 1.4245 ± 0.0009, a refractive index ([2]; 298.15 K, x1 = 1) of 1.4217 ± 0.001 and a refractive index ([2]; 303.15 K, x1 = 0.104) of 1.481 ± 0.0009. It also gave a refractive index ([2]; 303.15 K, x1 = 0.2045) of 1.4702 ± 0.0009, a refractive index ([2]; 303.15 K, x1 = 0.302) of 1.4604 ± 0.0009 and a refractive index ([2]; 303.15 K, x1 = 0.4006) of 1.4524 ± 0.0009. The refractive index ([2]; 303.15 K, x1 = 0.5007) was 1.4448 ± 0.0009, the refractive index ([2]; 303.15 K, x1 = 0.6004) was 1.4384 ± 0.0009 and the refractive index ([2]; 303.15 K, x1 = 0.7056) was 1.4316 ± 0.0009. It also gave a refractive index ([2]; 303.15 K, x1 = 0.8033) of 1.4262 ± 0.0009, a refractive index ([2]; 303.15 K, x1 = 0.8982) of 1.4219 ± 0.0009 and a refractive index ([2]; 303.15 K, x1 = 1) of 1.4192 ± 0.001. For the same compound, the refractive index ([2]; 308.15 K, x1 = 0.104) was 1.4779 ± 0.0009, the refractive index ([2]; 308.15 K, x1 = 0.2045) was 1.4675 ± 0.0009 and the refractive index ([2]; 308.15 K, x1 = 0.302) was 1.458 ± 0.0009. For the same compound, the refractive index ([2]; 308.15 K, x1 = 0.4006) was 1.4499 ± 0.0009, the refractive index ([2]; 308.15 K, x1 = 0.5007) was 1.4422 ± 0.0009 and the refractive index ([2]; 308.15 K, x1 = 0.6004) was 1.4357 ± 0.0009. For the same compound, the refractive index ([2]; 308.15 K, x1 = 0.7056) was 1.4292 ± 0.0009, the refractive index ([2]; 308.15 K, x1 = 0.8033) was 1.4235 ± 0.0009 and the refractive index ([2]; 308.15 K, x1 = 0.8982) was 1.4192 ± 0.0009. It also gave a refractive index ([2]; 308.15 K, x1 = 1) of 1.4163 ± 0.001.
